Data from patent US20120270237A9, “METHODS FOR THE IDENTIFICATION OF KINASE INTERACTING MOLECULES AND FOR THE PURIFICATION OF KINASE PROTEINS” (Cellzone AG, priority 2009, published 2012).

What was measured:
Assay in all cases: Kinobeads competition binding, HeLa Placenta lysate mix
Parameters in all cases: endogenous in cells
Details in all cases: 10 μM free compound
FER = FER (Homo sapiens, UniProt P16591)
Protocol: (§1) To one aliquot of cell lysate 10 μM of the free compound (FIG. 3, CZC31326) was added and allowed to bind to proteins in the lysate. Then the affinity matrix with the immobilized compound was added to capture proteins that were not interacting with the previously added free compound. Beads were separated from the lysate and bead bound proteins were eluted in SDS sample buffer and subsequently separated by SDS-Polyacrylamide gel electrophoresis (FIG. 10). Suitable gel bands were cut out and subjected to in-gel proteolytic digestion with trypsin. The second lysate aliquot was processed identically, however no free compound was added (DMSO solvent control). Peptides originating from samples 1 and 2 were labeled with iTRAQ reagents (iTRAQ 114 and iTRAQ 117) and the combined samples were analyzed with a nano-flow liquid chromatography system coupled online to a tandem mass spectrometer (LC-MS/MS) experiment followed by iTRAQ reporter ion quantification in the MS/MS spectra as described in Example 2.

CK2a1 = CK2a1 (Homo sapiens, UniProt P68400)
Sequence of CK2a1 (P68400 whole entry): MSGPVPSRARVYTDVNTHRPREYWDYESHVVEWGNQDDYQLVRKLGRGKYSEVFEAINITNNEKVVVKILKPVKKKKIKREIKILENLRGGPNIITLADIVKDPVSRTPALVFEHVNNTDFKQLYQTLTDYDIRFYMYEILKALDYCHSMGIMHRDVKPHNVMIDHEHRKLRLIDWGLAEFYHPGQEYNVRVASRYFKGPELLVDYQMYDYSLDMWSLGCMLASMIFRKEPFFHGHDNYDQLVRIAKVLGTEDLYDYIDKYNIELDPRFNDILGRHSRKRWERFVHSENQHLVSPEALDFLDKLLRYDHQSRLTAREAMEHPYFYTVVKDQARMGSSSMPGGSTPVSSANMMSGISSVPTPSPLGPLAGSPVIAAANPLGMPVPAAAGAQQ
Protocol: as §1

GSK3A = GSK3A (Homo sapiens, UniProt P49840)
Sequence of GSK3A (P49840 whole entry): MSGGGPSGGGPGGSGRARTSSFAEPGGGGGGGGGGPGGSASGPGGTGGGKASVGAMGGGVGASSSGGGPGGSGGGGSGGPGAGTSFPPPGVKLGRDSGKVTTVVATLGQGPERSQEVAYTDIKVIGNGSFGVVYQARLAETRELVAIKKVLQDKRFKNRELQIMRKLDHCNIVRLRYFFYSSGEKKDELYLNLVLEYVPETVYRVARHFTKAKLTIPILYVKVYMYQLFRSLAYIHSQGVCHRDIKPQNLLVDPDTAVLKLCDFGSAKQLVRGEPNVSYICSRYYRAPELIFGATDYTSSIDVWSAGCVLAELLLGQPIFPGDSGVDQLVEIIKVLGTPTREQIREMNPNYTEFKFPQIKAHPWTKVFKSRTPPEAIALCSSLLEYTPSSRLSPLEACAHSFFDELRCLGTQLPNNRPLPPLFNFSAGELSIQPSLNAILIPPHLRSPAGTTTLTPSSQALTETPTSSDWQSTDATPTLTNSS
Protocol: as §1

CaMKK2 = CaMKK2 (Homo sapiens, UniProt Q96RR4)
Sequence of CaMKK2 (Q96RR4 whole entry): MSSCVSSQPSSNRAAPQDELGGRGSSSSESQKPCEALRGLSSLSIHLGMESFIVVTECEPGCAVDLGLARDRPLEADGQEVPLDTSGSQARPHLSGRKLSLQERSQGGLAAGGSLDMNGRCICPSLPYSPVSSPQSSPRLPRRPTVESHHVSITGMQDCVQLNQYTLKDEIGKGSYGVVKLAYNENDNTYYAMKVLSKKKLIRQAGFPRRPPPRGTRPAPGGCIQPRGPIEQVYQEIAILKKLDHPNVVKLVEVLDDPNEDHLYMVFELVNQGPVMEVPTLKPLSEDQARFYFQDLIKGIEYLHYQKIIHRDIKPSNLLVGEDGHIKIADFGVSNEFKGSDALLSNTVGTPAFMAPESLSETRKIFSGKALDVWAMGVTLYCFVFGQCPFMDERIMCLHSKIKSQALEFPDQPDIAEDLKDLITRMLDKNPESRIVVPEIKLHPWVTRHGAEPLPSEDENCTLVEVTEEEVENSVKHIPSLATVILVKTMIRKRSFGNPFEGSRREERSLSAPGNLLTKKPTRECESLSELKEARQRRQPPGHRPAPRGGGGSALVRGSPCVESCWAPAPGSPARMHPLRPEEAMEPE
Protocol: as §1

NEK3 = biological target: T1, NEK3 (Homo sapiens, UniProt P51956)
T1 sequence (P51956 1-506): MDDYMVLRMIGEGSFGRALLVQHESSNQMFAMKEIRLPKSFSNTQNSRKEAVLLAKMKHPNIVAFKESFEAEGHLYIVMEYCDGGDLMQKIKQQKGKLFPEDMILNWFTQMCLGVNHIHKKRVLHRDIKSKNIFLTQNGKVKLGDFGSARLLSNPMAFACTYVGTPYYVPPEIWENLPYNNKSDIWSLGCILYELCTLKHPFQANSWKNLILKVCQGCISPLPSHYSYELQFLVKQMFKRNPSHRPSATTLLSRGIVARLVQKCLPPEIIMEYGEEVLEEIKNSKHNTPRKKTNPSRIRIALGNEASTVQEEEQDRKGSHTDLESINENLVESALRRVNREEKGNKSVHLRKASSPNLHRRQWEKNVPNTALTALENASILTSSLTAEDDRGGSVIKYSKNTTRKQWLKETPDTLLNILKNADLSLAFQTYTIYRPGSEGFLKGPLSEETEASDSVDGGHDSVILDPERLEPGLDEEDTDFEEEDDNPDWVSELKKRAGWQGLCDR
Protocol: as §1

MPSK1 = MPSK1 (Homo sapiens, UniProt O75716)
Sequence of MPSK1 (O75716 whole entry): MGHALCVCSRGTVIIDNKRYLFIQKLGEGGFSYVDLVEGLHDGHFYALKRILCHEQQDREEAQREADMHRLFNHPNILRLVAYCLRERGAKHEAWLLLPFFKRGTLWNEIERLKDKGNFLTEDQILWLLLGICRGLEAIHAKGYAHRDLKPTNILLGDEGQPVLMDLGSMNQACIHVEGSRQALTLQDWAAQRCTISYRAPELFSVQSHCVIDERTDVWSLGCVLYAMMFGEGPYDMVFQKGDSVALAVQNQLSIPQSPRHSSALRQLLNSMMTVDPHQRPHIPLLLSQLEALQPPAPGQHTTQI
Protocol: as §1

PAK4 = PAK4 (Homo sapiens, UniProt O96013)
Sequence of PAK4 (O96013 whole entry): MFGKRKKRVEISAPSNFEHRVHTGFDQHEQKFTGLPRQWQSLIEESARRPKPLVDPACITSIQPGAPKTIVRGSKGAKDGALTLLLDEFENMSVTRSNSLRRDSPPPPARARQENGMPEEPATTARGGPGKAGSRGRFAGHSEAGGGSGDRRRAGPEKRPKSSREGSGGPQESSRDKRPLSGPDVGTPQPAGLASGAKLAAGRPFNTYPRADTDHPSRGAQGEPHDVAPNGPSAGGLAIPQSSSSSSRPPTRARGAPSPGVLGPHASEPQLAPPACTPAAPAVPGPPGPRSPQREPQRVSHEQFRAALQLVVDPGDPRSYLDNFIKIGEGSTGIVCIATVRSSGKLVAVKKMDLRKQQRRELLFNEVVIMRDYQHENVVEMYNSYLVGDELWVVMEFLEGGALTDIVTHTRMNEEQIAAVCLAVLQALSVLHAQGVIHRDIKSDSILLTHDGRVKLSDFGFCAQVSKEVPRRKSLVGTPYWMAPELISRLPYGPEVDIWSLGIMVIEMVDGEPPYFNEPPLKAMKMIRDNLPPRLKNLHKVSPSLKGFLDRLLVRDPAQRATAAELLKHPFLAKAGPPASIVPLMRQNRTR
Protocol: as §1

BIKE = BIKE (Homo sapiens, UniProt Q9NSY1)
Sequence of BIKE (Q9NSY1 whole entry): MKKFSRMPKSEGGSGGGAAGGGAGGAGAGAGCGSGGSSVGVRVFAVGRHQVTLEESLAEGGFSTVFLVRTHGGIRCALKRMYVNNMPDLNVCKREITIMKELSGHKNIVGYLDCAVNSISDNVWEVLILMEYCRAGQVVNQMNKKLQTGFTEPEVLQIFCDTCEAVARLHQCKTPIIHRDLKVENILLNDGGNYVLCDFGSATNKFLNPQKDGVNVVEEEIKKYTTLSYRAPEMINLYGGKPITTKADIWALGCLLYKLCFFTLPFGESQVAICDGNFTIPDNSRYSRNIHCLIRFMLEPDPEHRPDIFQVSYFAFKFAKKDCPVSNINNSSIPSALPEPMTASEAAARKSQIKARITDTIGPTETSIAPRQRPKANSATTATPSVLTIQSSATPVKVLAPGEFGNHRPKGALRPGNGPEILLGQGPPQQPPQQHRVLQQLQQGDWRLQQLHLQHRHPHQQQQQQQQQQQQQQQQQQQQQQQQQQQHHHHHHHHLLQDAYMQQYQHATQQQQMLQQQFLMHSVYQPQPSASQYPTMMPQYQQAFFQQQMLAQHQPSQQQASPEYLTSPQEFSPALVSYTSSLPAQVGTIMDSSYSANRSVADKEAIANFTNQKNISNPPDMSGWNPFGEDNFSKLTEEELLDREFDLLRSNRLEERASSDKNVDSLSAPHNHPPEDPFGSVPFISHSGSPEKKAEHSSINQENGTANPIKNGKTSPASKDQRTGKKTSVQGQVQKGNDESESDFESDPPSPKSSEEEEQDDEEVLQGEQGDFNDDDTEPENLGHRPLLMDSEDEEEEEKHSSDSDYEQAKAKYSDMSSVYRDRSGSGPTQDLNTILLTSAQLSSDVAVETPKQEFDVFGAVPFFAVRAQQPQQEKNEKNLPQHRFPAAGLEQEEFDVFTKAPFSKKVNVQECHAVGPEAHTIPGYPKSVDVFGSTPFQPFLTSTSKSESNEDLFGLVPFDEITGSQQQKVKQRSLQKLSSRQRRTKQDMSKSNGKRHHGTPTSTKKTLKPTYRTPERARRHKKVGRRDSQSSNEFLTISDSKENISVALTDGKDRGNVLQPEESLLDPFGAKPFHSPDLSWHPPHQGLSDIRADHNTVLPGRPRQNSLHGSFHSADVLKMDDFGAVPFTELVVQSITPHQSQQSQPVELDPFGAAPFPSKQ
Protocol: as §1

NEK9 = biological target: T2, NEK9 (Homo sapiens, UniProt Q8TD19)
T2 sequence (Q8TD19 1-979): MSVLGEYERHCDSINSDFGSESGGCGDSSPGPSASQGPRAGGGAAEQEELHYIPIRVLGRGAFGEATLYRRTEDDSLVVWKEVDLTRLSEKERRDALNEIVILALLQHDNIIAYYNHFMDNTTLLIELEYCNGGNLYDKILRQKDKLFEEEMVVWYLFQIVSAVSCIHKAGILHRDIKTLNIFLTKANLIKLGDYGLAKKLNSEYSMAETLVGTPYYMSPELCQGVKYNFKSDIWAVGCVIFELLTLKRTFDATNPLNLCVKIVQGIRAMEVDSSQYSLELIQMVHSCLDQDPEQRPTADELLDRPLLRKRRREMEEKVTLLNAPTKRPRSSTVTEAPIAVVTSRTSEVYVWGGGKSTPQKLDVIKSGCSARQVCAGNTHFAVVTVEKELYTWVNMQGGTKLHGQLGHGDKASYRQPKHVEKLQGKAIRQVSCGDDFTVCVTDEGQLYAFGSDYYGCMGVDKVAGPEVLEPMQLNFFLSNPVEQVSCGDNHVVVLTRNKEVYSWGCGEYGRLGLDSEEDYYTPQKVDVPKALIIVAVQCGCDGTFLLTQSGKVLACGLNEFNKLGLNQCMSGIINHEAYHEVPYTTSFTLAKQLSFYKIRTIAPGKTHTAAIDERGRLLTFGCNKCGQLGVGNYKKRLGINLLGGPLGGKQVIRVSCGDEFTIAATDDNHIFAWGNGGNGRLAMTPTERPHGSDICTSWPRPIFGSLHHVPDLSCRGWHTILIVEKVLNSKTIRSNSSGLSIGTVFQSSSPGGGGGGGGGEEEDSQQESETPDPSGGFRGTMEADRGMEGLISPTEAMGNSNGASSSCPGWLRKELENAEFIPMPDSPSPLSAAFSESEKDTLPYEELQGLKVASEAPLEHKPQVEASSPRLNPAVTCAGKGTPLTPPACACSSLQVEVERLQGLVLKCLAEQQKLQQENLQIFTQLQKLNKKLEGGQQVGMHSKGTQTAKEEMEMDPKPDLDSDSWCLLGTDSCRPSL
Protocol: as §1

GSK3B = GSK3B (Homo sapiens, UniProt P49841)
Sequence of GSK3B (P49841 whole entry): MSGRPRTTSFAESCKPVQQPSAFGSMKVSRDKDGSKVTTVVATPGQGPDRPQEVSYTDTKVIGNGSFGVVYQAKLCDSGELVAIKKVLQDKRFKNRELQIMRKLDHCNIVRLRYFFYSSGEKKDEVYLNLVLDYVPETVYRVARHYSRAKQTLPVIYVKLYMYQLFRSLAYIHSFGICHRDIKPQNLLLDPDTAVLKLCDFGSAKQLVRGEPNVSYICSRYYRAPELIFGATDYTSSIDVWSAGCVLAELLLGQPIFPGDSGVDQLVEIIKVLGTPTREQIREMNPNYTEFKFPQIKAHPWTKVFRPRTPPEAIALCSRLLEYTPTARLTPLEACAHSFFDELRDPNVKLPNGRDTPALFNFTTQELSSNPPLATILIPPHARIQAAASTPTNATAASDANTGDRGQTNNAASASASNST
Protocol: as §1

MAP2K6 = MAP2K6 (Homo sapiens, UniProt P52564)
Sequence of MAP2K6 (P52564 whole entry): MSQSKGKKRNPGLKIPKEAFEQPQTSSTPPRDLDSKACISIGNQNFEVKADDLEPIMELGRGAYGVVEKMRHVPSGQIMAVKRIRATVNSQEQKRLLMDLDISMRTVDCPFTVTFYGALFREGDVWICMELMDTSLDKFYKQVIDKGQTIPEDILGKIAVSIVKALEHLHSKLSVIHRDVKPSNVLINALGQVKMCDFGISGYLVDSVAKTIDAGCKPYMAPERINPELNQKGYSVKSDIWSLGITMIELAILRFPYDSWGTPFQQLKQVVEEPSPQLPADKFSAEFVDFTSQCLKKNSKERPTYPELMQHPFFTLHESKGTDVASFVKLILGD
Protocol: as §1

inhibition at 10 µM (FER): 95.3% | inhibition at 10 µM (CK2a1): 94.6% | inhibition at 10 µM (GSK3A): 93.7% | inhibition at 10 µM (CaMKK2): 94.3% | inhibition at 10 µM (NEK3): 94.8% | inhibition at 10 µM (MPSK1): 91.5% | inhibition at 10 µM (PAK4): 94.2% | inhibition at 10 µM (BIKE): 92.9% | inhibition at 10 µM (GSK3B): 93.3% | inhibition at 10 µM (MAP2K6): 89.2%
Compound: CS(=O)(=O)Nc1ccccc1Nc1nc(Nc2cccc(OCCN)c2)ncc1Cl [CZC31326, N-(2-(2-(3-(2-aminoethoxy)phenylamino)-5-chloropyrimidin-4-ylamino)phenyl)methanesulfonamide]
inhibition at 10 µM (NEK9): 89%
